Measurements as given in ChEMBL document CHEMBL4665646, “Mass Spectrometry-based Label-free Quantitative Proteomics To Study the Effect of 3PO Drug at Cellular Level” (2019).
Activity calls are given as the source filed them. The calls are words filed in the database; no cut-off is given here.

Assays:
EA.hy 926 [1] = experiment: (§1) Antiinflammatory activity in TNFalpha-induced human EA.hy 926 cells assessed as decrease in IL1B expression at 20 uM pretreated with compound for 1 hr followed by TNFalpha challenge and further incubated for 24 hrs by SYBR-green based qRT-PCR analysis; assay type: functional, cell-based; settings: time 25.0 hrs
EA.hy 926 [2] = experiment: Antiinflammatory activity in TNFalpha-induced human EA.hy 926 cells assessed as decrease in […] expression at 20 uM pretreated with compound for 1 hr followed by TNFalpha challenge and further incubated for 24 hrs by SYBR-green based qRT-PCR analysis; assay type: functional, cell-based; settings: time 25.0 hrs
EA.hy 926 [3] = experiment: as §1, with “HLA-A” for “IL1B”, “expression by measuring log2 fold change” for “expression”, “analysis (reference value: 1.56)” for “analysis”; assay type: functional; settings: time 25 hrs
EA.hy 926 [4] = experiment: Cytotoxicity against human EA.hy 926 cells assessed as inhibition of cell proliferation at 20 uM after 24 hrs by MTT assay; assay type: functional, cell-based
EA.hy 926 [5] = experiment: (§2) Antiinflammatory activity in TNFalpha-induced human EA.hy 926 cells assessed as decrease in ICAM-1 expression by measuring log2 fold change at 20 uM pretreated with compound for 1 hr followed by TNFalpha challenge and further incubated for 24 hrs by SYBR-green based qRT-PCR analysis; assay type: functional; settings: time 25 hrs
EA.hy 926 [6] = experiment: as §2, with “SOD-2” for “ICAM-1”, “analysis (reference value: 2.69)” for “analysis”; assay type: functional; settings: time 25 hrs
EA.hy 926 [7] = experiment: Antiinflammatory activity in TNFalpha-induced human EA.hy 926 cells assessed as decrease in IL8 expression at 20 uM pretreated with compound for 1 hr followed by TNFalpha challenge and further incubated for 24 hrs by SYBR-green based qRT-PCR analysis; assay type: functional, cell-based; settings: time 25.0 hrs

O=C(/C=C/c1cccnc1)c1ccncc1
Activity (EA.hy 926 [1]): Active
Activity (EA.hy 926 [2]): Active
log2FC (EA.hy 926 [3]): -0.75
inhibition (EA.hy 926 [4]): Active
log2FC (EA.hy 926 [5]): -0.47
log2FC (EA.hy 926 [6]): -0.53
Activity (EA.hy 926 [7]): Active
